Reference: ChEMBL document CHEMBL4819020, “Discovery of [1,2,4]triazolo[1,5-a]pyrimidines derivatives as potential anticancer agents” (Eur J Med Chem, 2021)
Active and inactive are the calls of the source. No cut-off for these calls is given here.

Experiments:
MGC-803 [1] = assay: Antiproliferative activity against human MGC-803 cells assessed as inhibition of cell proliferation measured after 72 hrs by MTT assay; assay type: functional, cell-based; settings: MGC-803, 72 h
MCF7 = assay: Antiproliferative activity against human MCF7 cells assessed as inhibition of cell proliferation measured after 72 hrs by MTT assay; assay type: functional, cell-based; settings: MCF7, 72 h
PC-9 = assay: Antiproliferative activity against human PC-9 cells assessed as inhibition of cell proliferation measured after 72 hrs by MTT assay; assay type: functional, cell-based; settings: PC-9, 72 h
GES1 = assay: Antiproliferative activity against human GES1 cells assessed as inhibition of cell proliferation measured after 72 hrs by MTT assay; assay type: cell-based; settings: GES1, 72 h
MGC-803 [2] = assay: Antiproliferative activity against human MGC-803 cells assessed as inhibition of colony formation at 0.125 to 0.5 uM measured after 7 days by crystal violet dye based colony formation assay; assay type: functional, cell-based; settings: dose 0.125-0.5 µM, time 7.0 day
MGC-803 [3] = assay: Cell cycle arrest in human MGC-803 cells assessed as accumulation of cells in G0/G1 phase at 0.75 uM measured after 24 hrs by PI staining based flow cytometry assay (reference value: 49.39%); assay type: functional
MGC-803 [4] = assay: Cell cycle arrest in human MGC-803 cells assessed as accumulation of cells in G0/G1 phase at 1.5 uM measured after 24 hrs by PI staining based flow cytometry assay (reference value: 49.39%); assay type: functional
MGC-803 [5] = assay: Cell cycle arrest in human MGC-803 cells assessed as accumulation of cells in S phase at 1.5 uM measured after 24 hrs by PI staining based flow cytometry assay (reference value: 18.03%); assay type: functional
MGC-803 [6] = assay: Cell cycle arrest in human MGC-803 cells assessed as accumulation of cells in G2/M phase at 1.5 uM measured after 24 hrs by PI staining based flow cytometry assay (reference value: 33.35%); assay type: functional
MGC-803 [7] = assay: Cell cycle arrest in human MGC-803 cells assessed as accumulation of cells in G0/G1 phase at 3 uM measured after 24 hrs by PI staining based flow cytometry assay (reference value: 49.39%); assay type: functional
MGC-803 [8] = assay: Cell cycle arrest in human MGC-803 cells assessed as accumulation of cells in S phase at 3 uM measured after 24 hrs by PI staining based flow cytometry assay (reference value: 18.03%); assay type: functional
MGC-803 [9] = assay: Cell cycle arrest in human MGC-803 cells assessed as accumulation of cells in G2/M phase at 3 uM measured after 24 hrs by PI staining based flow cytometry assay (reference value: 33.35%); assay type: functional
MGC-803 [10] = assay: Induction of cell cycle arrest in human MGC-803 cells assessed as increase in p27 expression at 0.75 to 3 uM measured after 24 hrs by western blot assay; assay type: functional, cell-based; settings: dose 0.75-3 µM
MGC-803 [11] = assay: Induction of apoptosis in human MGC-803 cells assessed by formation of apoptotic bodies at 0.75 to 3 uM measured after 48 hrs by Hoechst 33342 staining based microscopic method; assay type: functional, cell-based; settings: dose 0.75-3 µM
MGC-803 [12] = assay: Induction of apoptosis in human MGC-803 cells assessed by nuclear fragmentation at 0.75 to 3 uM measured after 48 hrs by Hoechst 33342 staining based microscopic method; assay type: functional, cell-based; settings: dose 0.75-3 µM
MGC-803 [13] = assay: Induction of apoptosis in human MGC-803 cells assessed as viable cells at 0.75 uM measured after 48 hrs by Annexin V-FITC/PI staining based flow cytometry method (reference value: 92.3 %); assay type: functional; settings: read-out: Activity
MGC-803 [14] = assay: Induction of apoptosis in human MGC-803 cells assessed as early apoptotic cells at 0.75 uM measured after 48 hrs by Annexin V-FITC/PI staining based flow cytometry method (reference value: 0.992 %); assay type: functional
MGC-803 [15] = assay: Induction of apoptosis in human MGC-803 cells assessed as late apoptotic cells at 0.75 uM measured after 48 hrs by Annexin V-FITC/PI staining based flow cytometry method (reference value: 3.10 %); assay type: functional
MGC-803 [16] = assay: Induction of apoptosis in human MGC-803 cells assessed as viable cells at 1.5 uM measured after 48 hrs by Annexin V-FITC/PI staining based flow cytometry method (reference value: 92.3 %); assay type: functional; settings: read-out: Activity
MGC-803 [17] = assay: Induction of apoptosis in human MGC-803 cells assessed as early apoptotic cells at 1.5 uM measured after 48 hrs by Annexin V-FITC/PI staining based flow cytometry method (reference value: 0.992 %); assay type: functional
MGC-803 [18] = assay: Induction of apoptosis in human MGC-803 cells assessed as late apoptotic cells at 1.5 uM measured after 48 hrs by Annexin V-FITC/PI staining based flow cytometry method (reference value: 3.10 %); assay type: functional
MGC-803 [19] = assay: Induction of apoptosis in human MGC-803 cells assessed as necrotic cells at 1.5 uM measured after 48 hrs by Annexin V-FITC/PI staining based flow cytometry method (reference value: 3.60 %); assay type: functional
MGC-803 [20] = assay: Induction of apoptosis in human MGC-803 cells assessed as viable cells at 3 uM measured after 48 hrs by Annexin V-FITC/PI staining based flow cytometry method (reference value: 92.3 %); assay type: functional; settings: read-out: Activity
MGC-803 [21] = assay: Induction of apoptosis in human MGC-803 cells assessed as late apoptotic cells at 3 uM measured after 48 hrs by Annexin V-FITC/PI staining based flow cytometry method (reference value: 3.10 %); assay type: functional
MGC-803 [22] = assay: Induction of apoptosis in human MGC-803 cells assessed as upregulation of Bax at 0.75 to 3 uM measured after 48 hrs by western blot assay; assay type: functional, cell-based; settings: dose 0.75-3 µM
MGC-803 [23] = assay: Induction of apoptosis in human MGC-803 cells assessed as decrease in Bcl-2 expression at 0.75 to 3 uM measured after 48 hrs by western blot assay; assay type: functional, cell-based; settings: dose 0.75-3 µM
MGC-803 [24] = assay: Induction of apoptosis in human MGC-803 cells assessed as increase in cleaved caspase expression at 0.75 to 3 uM measured after 48 hrs by western blot assay; assay type: functional, cell-based; settings: dose 0.75-3 µM
MGC-803 [25] = assay: Induction of apoptosis in human MGC-803 cells assessed as increase in cleaved caspase 3/9 expression at 0.75 to 3 uM measured after 48 hrs by western blot assay; assay type: functional, cell-based; settings: dose 0.75-3 µM
MGC-803 [26] = assay: Inhibition of cell migration in human MGC-803 cells measured after 48 hrs by wound healing assay; assay type: functional, cell-based; settings: dose 0.25-1 µM
[27] = Toxicity in mouse assessed as mouse survival at 2 mg/kg, ig measured after 2 weeks; assay type: organism-based; settings: in vivo, po, 336 h
[28] = Toxicity in mouse assessed by effect on changes in body weight at 2 mg/kg, ig measured after 2 weeks; assay type: organism-based; settings: in vivo, po, 336 h
[29] = Toxicity in mouse assessed as effect on heart at 2 mg/kg, ig measured after 2 weeks by H and E staining based microscopic method; assay type: organism-based; settings: in vivo, po, 336 h
[30] = Toxicity in mouse assessed as effect on liver at 2 mg/kg, ig measured after 2 weeks by H and E staining based microscopic method; assay type: organism-based; settings: in vivo, po, 336 h
[31] = Toxicity in mouse assessed as effect on lung at 2 mg/kg, ig measured after 2 weeks by H and E staining based microscopic method; assay type: organism-based; settings: in vivo, po, 336 h
[32] = Toxicity in mouse assessed as effect on kidney at 2 mg/kg, ig measured after 2 weeks by H and E staining based microscopic method; assay type: organism-based; settings: in vivo, po, 336 h
[33] = Selectivity index, ratio of EC50 for human MGC-803 cells to EC50 for human GES1 cells

Work on Cc1cc(Nc2ccn(Cc3nc(C)c4ccccc4n3)n2)n2nc(SCc3ccc(Br)cc3)nc2n1 yielded an IC50 (MGC-803 [1]) of 0.96 µM, an IC50 (MCF7) of 1.43 µM and an IC50 (PC-9) of 5.45 µM. For the same molecule, the IC50 (GES1) was 36.8 µM, the Activity (MGC-803 [2]) was “Active” and the Activity (MGC-803 [3]) was 56.2%. It also gave an Activity (MGC-803 [4]) of 57.78%, an Activity (MGC-803 [5]) of 20.75% and an Activity (MGC-803 [6]) of 14.61%. The Activity (MGC-803 [7]) was 69.99%, the Activity (MGC-803 [8]) was 18.5% and the Activity (MGC-803 [9]) was 4.64%. For the same molecule, the Activity (MGC-803 [10]) was “Dose-Dependent Effect”, the Activity (MGC-803 [11]) was “Dose-Dependent Effect” and the Activity (MGC-803 [12]) was “Dose-Dependent Effect”. The viability at 0.75 µM (MGC-803 [13]) was 89.1%, the Activity (MGC-803 [14]) was 2.17% and the Activity (MGC-803 [15]) was 5.23%. The viability at 1.5 µM (MGC-803 [16]) was 80.3%, the Activity (MGC-803 [17]) was 6.85% and the Activity (MGC-803 [18]) was 10.4%. It also gave an Activity (MGC-803 [19]) of 2.47%, a viability at 3 µM (MGC-803 [20]) of 28% and an Activity (MGC-803 [21]) of 27.7%. For the same molecule, the Activity (MGC-803 [22]) was “Dose-Dependent Effect”, the Activity (MGC-803 [23]) was “Dose-Dependent Effect” and the Activity (MGC-803 [24]) was “Dose-Dependent Effect”. The Activity (MGC-803 [25]) was “Dose-Dependent Effect”, the Activity (MGC-803 [26]) was “Dose-Dependent Effect” and the Activity [27] was “Non-Toxic”. The Activity [28] was “Non-Toxic”, the Activity [29] was “Non-Toxic” and the Activity [30] was “Non-Toxic”. For the same molecule, the Activity [31] was “Non-Toxic”, the Activity [32] was “Non-Toxic” and the “Ratio EC50” value [33] was 38.
